From patent US20110071094A1, “(D)-ALLOSE INDUCING PROGRAMMED CELL DEATH IN HORMONE REFRACTORY PROSTATE CANCER LINES” (INDUSTRY-ACADEMIC COOPERATION FOUDATION, GYEONGSANG …, priority 2008, published 2011)

Key:
DU145 cell line [1] = test: Cell viability / cell growth, MTT assay; assay type: cell-based, human; conditions: DU145, 0-40 mM, compared to control
Protocol: DU145 (human HRPC cell line, derived from a patient with brain metastasis) and PrEC (human normal prostate epithelial cell line) cell lines were obtained from Korea Cell Line Bank (KCLB, Seoul, South Korea). DU145 and PrEC cell lines were grown in triplicate culture plates containing RPMI-1640 (HyClone, Logan, Utah, USA) and Dulbecco's Modified Eagle's Medium (HyClone, Logan, Utah, USA) respectively, and kept in a humidified atmosphere containing 5% CO2 at 37° C. for 72 h. The media were supplemented with 10% heat-inactivated fetal bovine serum (HyClone, Logan, Utah, USA), 1% antibio-antimicotic solution containing 10,000 units/ml of penicillin and 10 mg/ml of streptomycin (HyClone, Logan, Utah, USA), HEPES, sodium bicarbonate, p-aminobenzoic acid and insulin (complete culture media). D-Allose was purchased from Sigma (St. Louis, Mo., USA) and dissolved at a concentration of 1 M in sterile phosphate-buffered saline (PBS), and was further sterilized by filtration. To examine the dose- and time-dependent effects, the cell lines (70-80% confluent) were treated with 0-40 mM of D-allose for up to 72 h, whereas without D-allose treated cell lines (0 mM) were considered as control. DU145 cell line was also treated with 0-40 mM of D-glucose. All the other chemicals used in the work were procured from Sigma (St. Louis, Mo., USA), unless otherwise specified.
The logarithmic growth phase of DU145 and PrEC cell lines were taken for growth assay using 3-[4,5-dimethylthiazol-2-yl]-2,5-diphenyl tetrazolium bromide (MTT). […] After incubation for the specified time at 37° C. in a humidified 5% CO2 incubator, cell viability was determined. […] To achieve solubilization of formazan crystal formed in viable cells, DMSO was added to each well, and the absorbance was recorded on a microplate reader at 595 nm wavelength. The effect of sugars on growth inhibition was assessed as percent cell viability where control cells were taken as 100% viable.

DU145 cell line [2] = test: Apoptotic indices by DAPI staining, confocal microscopy; assay type: cell-based, human; conditions: DU145, 24, 48 and 72 h
Protocol: The Annexin-V-FLUOS Staining Kit (Roche Diagnostics GmbH, Mannheim, Germany) was used for the detection and quantification of the apoptotic cells. This kit uses a dual-staining protocol in which the apoptotic cells are stained with annexin-V (green fluorescence) and the necrotic cells are stained with propidium iodide (PI, red fluorescence). Briefly, DU145 cell line was grown at a density of 1×10^6 cells in triplicate culture plates and then treated with D-allose (0, 20 and 40 mM) for 48 and 72 h. The cells were treated with trypsin and harvested with PBS and processed for labeling with annexin-V and PI by the use of the kit according to the manufacturer's protocol. The fluorescence was measured by flow cytometric analysis, performed on a FACSCalibur (Becton Dickinson, San Jose, Calif., USA) using 488 nm excitation and a 515 nm band pass filter for fluorescein detection and a filter [600 nm for PI detection (FL1: Annexin-V-FLUOS; FL2: PI). Further, apoptotic indices were measured by analysis of fragmented or scattered nuclei and condensed chromosome as the stringent morphological criteria of apoptosis, detectable by confocal microscopy on cells stained with DNA-intercalating dye […] (DAPI). For this purpose, DU145 and PrEC cell lines were exposed to 0, 20 and 40 mM of D-allose for up to 72 h, stained with DAPI (1 μg/ml in methanol), mounted with Prolong Antifade reagent (Molecular Probes, Eugene, Oreg., USA), and images were acquired by use of a confocal laser scanning microscope (Fluoview FV 1000, Olympus, Japan). The numbers of apoptotic nuclei per 100 cells were counted from the five high power fields/slide and apoptotic indices were expressed as a percentage of the untreated controls in each cell line, considering the value as 100%. DU145 cell line was also treated with 0-40 mM of D-glucose for determination of apoptotic indices as mentioned above.

O=C[C@H](O)[C@@H](O)[C@H](O)[C@H](O)CO [D-glucose, reference compound]
cell growth (MTT assay) (DU145 cell line [1]): significant increase of cell growth in a dose-dependent manner
programmed cell death (apoptotic indices, DAPI staining) (DU145 cell line [2]): no remarkable effect
